The CheMixHub ionic liquid set

Test: xn = mol fraction of the nth substance listed

CCCCCCCC(=O)[O-].c1c[nH+]c[nH]1 + CC#N
101.3 kPa
Conditions | viscosity [mPa·s]
293.15 K, x2 = 0.298 | 37.82
293.15 K, x2 = 0.499 | 17.94
293.15 K, x2 = 0.5995 | 10.6
293.15 K, x2 = 0.8996 | 1.201
303.15 K, x2 = 0 | 56.48
303.15 K, x2 = 0.1044 | 45.4
303.15 K, x2 = 0.5995 | 9.6
308.15 K, x2 = 0.499 | 12.8
318.15 K, x2 = 0.298 | 18.21
318.15 K, x2 = 0.4005 | 14.1
323.15 K, x2 = 0.499 | 10.2
323.15 K, x2 = 0.5995 | 7.6

CCCCCC[n+]1ccn(C)c1.[Br-] + OC1OC[C@@H](O)[C@H](O)[C@H]1O + O
298.15 K, 101 kPa
Conditions | viscosity [mPa·s]
x2 = 0, x1 = 0.001844 | 0.948
x2 = 0, x1 = 0.003654 | 1.005
x2 = 0, x1 = 0.005425 | 1.053
x2 = 0, x1 = 0.007153 | 1.101

CCCCCC[n+]1ccn(C)c1.O=S(=O)([N-]S(=O)(=O)C(F)(F)F)C(F)(F)F + C1CCOC1
298.15 K, 100 kPa
Conditions | electrical conductivity [S/m]
x1 = 0.0649 | 0.9
x1 = 0.09702 | 1.1
x1 = 0.1393 | 1
x1 = 0.194 | 1.3
x1 = 0.2742 | 0.9

CCCCCC[n+]1ccn(C)c1.O=S(=O)([N-]S(=O)(=O)C(F)(F)F)C(F)(F)F + CC#N
298.15 K, 100 kPa
Conditions | electrical conductivity [S/m]
x1 = 0.03801 | 3.3
x1 = 0.0581 | 3.7
x1 = 0.08404 | 4
x1 = 0.1205 | 3.6
x1 = 0.1763 | 2.8

CCCC[n+]1ccn(C)c1.COS(=O)(=O)[O-] + O
viscosity [mPa·s], 101 kPa
Conditions | 283.15 K | 293.15 K | 303.15 K | 313.15 K | 323.15 K | 333.15 K | 343.15 K
x2 = 0.0004 | 527 | 273.8 | 153.5 | 93.1 | 60.24 | 41.07 | 29.3
x2 = 0.0999 | 432 | 229.3 | 132.8 | 82.6 | 54.53 | 37.8 | 27.72
x2 = 0.194 | 356.2 | 193.6 | 114.5 | 72.55 | 48.65 | 34.25 | 25.14
x2 = 0.3979 | 182.1 | 104.3 | 64.51 | 42.47 | 29.48 | 21.44 | 16.88
x2 = 0.6025 | 63.13 | 38.93 | 25.65 | 17.84 | 12.97 | 9.806 | 8.289
x2 = 0.8005 | 19.72 | 13.01 | 9.056 | 6.609 | 5.006 | 3.929 | 3.175
x2 = 0.8993 | 8.179 | 5.646 | 4.113 | 3.137 | 2.483 | 2.029 | 1.707

O=C1c2ccccc2C(=O)C1(O)O + CCCC[N+](CCCC)(CCCC)CCCC.O=S(=O)([O-])O
100 kPa, x2 = 0.571
Conditions | electrical conductivity [S/m] | viscosity [mPa·s]
293.15 K | 2.5e-06 | –
298.15 K | 7.8e-06 | –
303.15 K | 2.49e-05 | –
308.15 K | 6.58e-05 | –
313.15 K | 0.000153 | –
318.15 K | 0.000325 | –
323.15 K | 0.000614 | –
328.15 K | 0.00109 | 27000
333.15 K | 0.00183 | –
343.15 K | – | 6500

CCCCCCCCCCCCCCCC[P+](CCCC)(CCCC)CCCC.[Br-] + O
300 K, 101 kPa
Conditions | electrical conductivity [S/m]
x2 = 0.201 | 0.00035
x2 = 0.302 | 0.00035
x2 = 0.402 | 0.00035
x2 = 0.502 | 0.00035

OC[C@H]1O[C@@H](O[C@H]2[C@H](O)[C@@H](O)C(O)O[C@@H]2CO)[C@H](O)[C@@H](O)[C@@H]1O (some centres not stated) + CC(=O)[O-].CC[n+]1ccn(C)c1
100 kPa
Conditions | viscosity [mPa·s]
292.4 K, x1 = 0.0255 | 339
302.1 K, x1 = 0.08067 | 921
312.5 K, x1 = 0.004998 | 61
312.5 K, x1 = 0.01515 | 73
322.6 K, x1 = 0.01515 | 45
322.6 K, x1 = 0.08067 | 207
332.2 K, x1 = 0.0255 | 39
332.2 K, x1 = 0.08067 | 123
342.5 K, x1 = 0.004998 | 20

CCCCCC[n+]1ccn(C)c1.O=S(=O)([N-]S(=O)(=O)C(F)(F)F)C(F)(F)F + O
Conditions | electrical conductivity [S/m]
295.15 K, 101 kPa, x2 = 0.233 | 0.29

CCn1cc[n+](CC)c1.O=S(=O)([N-]S(=O)(=O)C(F)(F)F)C(F)(F)F + O
100 kPa, x2 = 0.2772
Conditions | viscosity [mPa·s]
318.15 K | 11.04
358.15 K | 4.96

OCCCCCO + C[N+](C)(C)CCO.O=S(=O)([N-]S(=O)(=O)C(F)(F)F)C(F)(F)F
Conditions | viscosity [mPa·s]
333.15 K, 101 kPa, x1 = 1 | 20.3

CCCC[n+]1ccn(C)c1.N#C[C-](C#N)C#N + CCCC[n+]1ccn(C)c1.O=S(=O)([N-]S(=O)(=O)C(F)(F)F)C(F)(F)F
viscosity [mPa·s], 100 kPa
Conditions | x2 = 0 | x2 = 0.252 | x2 = 0.501 | x2 = 0.751
283.15 K | 58.2 | 65.9 | 77.3 | 88.9
288.15 K | 44.5 | 50.6 | 59.4 | 68.5
293.15 K | 34.9 | 39.8 | 46.8 | 53.9
298.15 K | 28 | 31.9 | 37.6 | 43.1
303.15 K | 22.9 | 26.1 | 30.7 | 35.2
308.15 K | 18.98 | 21.6 | 25.4 | 29.1
313.15 K | 15.99 | 18.22 | 21.4 | 24.4
318.15 K | 13.66 | 15.53 | 18.22 | 20.7
323.15 K | 11.8 | 13.39 | 15.72 | 17.75
328.15 K | 10.29 | 11.66 | 13.61 | 15.38
333.15 K | 9.06 | 10.25 | 11.9 | 13.44
338.15 K | 8.04 | 9.08 | 10.54 | 11.84
343.15 K | 7.19 | 8.1 | 9.38 | 10.5
348.15 K | 6.47 | 7.27 | 8.42 | 9.39
353.15 K | 5.86 | 6.57 | 7.55 | 8.44
358.15 K | 5.34 | 5.97 | 6.86 | 7.62
363.15 K | 4.88 | 5.46 | 6.29 | 6.93

CC1=CCC(C(C)C)=CC1 + CCCCCCCC[N+](CCCCCCCC)(CCCCCCCC)CCCCCCCC.[Br-] + [Cl-].[Cl-].[Co+2]
Conditions | viscosity [mPa·s]
296.1 K, 101.3 kPa, x2 = 0.4, x3 = 0.2 | 120000
